# Assay results as given in PMC5584805 (Biochemistry, 2016).
# “And” between values parts separate entries of the source, which are not always exact repeats. Identical values can stand only once. Like-named read-outs stand apart in the source and are kept apart here. Marks after values point to notes of the source that are not given here.
# Columns and labels:
# [1] = biological target: T1, Escherichia coli CTP synthetase (EcCTPS) (Escherichia coli, UniProt P0A7E5); assay: CTP synthesis assay; conditions: for Kd: best fit; for apparent kcat at 2 μM EcCTPS: annealing at 40 μM EcCTPS; for EC50: EC50 (activation); for Ki: Ki (two-site model); for IC50^ox/IC50^red: ratio of oxidized to reduced form IC50, standard conditions
# T1 sequence (P0A7E5 whole entry): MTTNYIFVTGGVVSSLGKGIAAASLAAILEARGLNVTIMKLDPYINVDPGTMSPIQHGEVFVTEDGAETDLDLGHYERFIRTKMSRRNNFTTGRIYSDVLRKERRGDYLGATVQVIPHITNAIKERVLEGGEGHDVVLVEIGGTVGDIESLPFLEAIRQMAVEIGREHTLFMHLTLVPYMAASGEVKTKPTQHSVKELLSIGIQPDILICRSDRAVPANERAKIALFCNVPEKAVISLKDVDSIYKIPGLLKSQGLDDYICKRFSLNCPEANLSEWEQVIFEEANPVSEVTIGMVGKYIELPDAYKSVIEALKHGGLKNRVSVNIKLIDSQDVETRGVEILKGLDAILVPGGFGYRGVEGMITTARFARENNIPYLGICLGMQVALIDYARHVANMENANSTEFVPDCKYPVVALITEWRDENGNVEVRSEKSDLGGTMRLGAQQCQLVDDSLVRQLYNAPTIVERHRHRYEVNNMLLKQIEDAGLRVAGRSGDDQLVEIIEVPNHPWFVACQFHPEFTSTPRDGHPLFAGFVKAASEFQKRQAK
# [2] = tested on: CTPS glutamine hydrolysis; conditions: low concentrations (0–200 μM); cited from earlier work
# [3] = biological target: T1, Escherichia coli CTP synthetase (EcCTPS); conditions: read-out: IC50 (inhibition of CTP synthesis); higher GTP concentrations; cited from earlier work
# E277R EcCTPS = E277R EcCTPS (Escherichia coli, UniProt P0A7E5, E277R); assay: CTP synthesis assay, filament-blocking mutant E277R EcCTPS; assay type: biochemical
# E277R EcCTPS, sequence (P0A7E5 whole entry E277R): as the sequence (P0A7E5 whole entry) above, with E277R counted along it
# EcCTPS = EcCTPS (Escherichia coli, UniProt P0A7E5); assay: Ammonia-dependent CTP synthesis; assay type: biochemical; conditions: Figure S6
# EcCTPS, sequence (P0A7E5 whole entry): as the sequence (P0A7E5 whole entry) above
# [4] = IC50, standard: 200 nM EcCTPS, 1.5 mM ATP, 600 μM UTP, 10 mM glutamine, 200 μM GTP (unless GTP titrated), linear extrapolation
# [5] = inhibitor alone, activating GTP (50 or 200 μM)
# [6] = two ligands present (second inhibitor)
# [7] = 100 nM enzyme, other substrates saturating, 200 μM GTP
# [8] = limiting substrate titrated, other substrates saturating, 200 μM GTP, 37 °C
# [9] = standard: 200 nM EcCTPS, 1.5 mM ATP, 600 μM UTP, 10 mM glutamine, 200 μM GTP (unless GTP titrated), linear extrapolation
smiles,measurement,setting,value
"C[n+]1cccc(C(N)=O)c1 [1MeN, 1-methylnicotinamide]",inhibition at 3000 µM,[1],< 25%
same,IC50,[1]; [4],~4000 µM
"Nc1ccn([C@@H]2O[C@H](COP(=O)(O)OP(=O)(O)OP(=O)(O)O)[C@@H](O)[C@H]2O)c(=O)n1 [CTP, cytidine-5’-triphosphate]",inhibition at 750 µM,[1],85%
same,"limiting slope of Hill plot, high concentration range","[1]; 50 μM UTP, 100 nM EcCTPS",−1.9 ± 0.3
same,"limiting slope of Hill plot, low concentration range","[1]; 50 μM UTP, 100 nM EcCTPS",−0.6 ± 0.2
same,IC50,"[1]; IC50, 50 μM GTP, otherwise standard",620 ± 30 µM
same,IC50,"[1]; IC50, 500 μM GTP, otherwise standard",220 ± 60 µM
same,IC50,[1]; [4],~370 µM and 370 µM
same,Kd,"[1]; K1 (four-site sequential binding model), standard conditions",446 µM
same,Kd,"[1]; K2 (four-site sequential binding model), standard conditions",2120 µM
same,Kd,"[1]; K3 (four-site sequential binding model), standard conditions",1170 µM
same,Kd,"[1]; K4 (four-site sequential binding model), standard conditions",7.5 µM
same,increase of inhibition potency,[1]; by 500 μM NADH,2.3 fold
same,IC50,"[1]; fit IC50 value (four-site sequential binding model), standard conditions",385 µM
same,K2/K1 (sequential binding model),[1]; [5],4–40
same,K3/K2 (sequential binding model),[1]; [5],0.2–0.8
same,IC50 relative to UTP concentration (fold lower),[1]; saturating UTP (600 μM),1.6 fold
same,average slope of Hill plot,[1]; standard conditions,−2.0
same,K2/K1 (sequential binding model),[1]; [6],0.4–0.8
same,K3/K2 (sequential binding model),[1]; [6],40–250
"Nc1ncnc2c1ncn2[C@@H]1O[C@H](COP(=O)(O)OP(=O)(O)OP(=O)(O)O)[C@@H](O)[C@H]1O [ATP, adenosine 5’-triphosphate]","Hill coeff, nH",[1]; [7],1.7 ± 0.3
same,S0.5,[1]; [7],126 ± 13 µM
same,S0.5,[1]; 50 μM GTP,81 ± 5 µM
same,"Hill coeff, nH",[1]; 60 μM UTP,1.9 ± 0.4 (5)
same,S0.5,[1]; 60 μM UTP,310 ± 20 µM
same,S0.5,[1]; 500 μM GTP,155 ± 25 µM
same,"Hill coeff, nH",[1]; [8],1.7 ± 0.2 (18)^c
"Nc1nc2c(ncn2[C@@H]2O[C@H](COP(=O)(O)OP(=O)(O)OP(=O)(O)O)[C@@H](O)[C@H]2O)c(=O)[nH]1 [GTP, guanosine-5’-triphosphate]",activation of glutamine hydrolysis,[2],up to 50 fold
same,IC50,[3],~500 µM
same,kact (two-site activation/inhibition model),"[1]; 200 nM WT, no other inhibitor",10.7 s⁻¹
same,ninh (two-site model),"[1]; 200 nM WT, no other inhibitor",4.7
same,kact (two-site model),[1]; 4 μM WT,4.7 s⁻¹
same,ninh (two-site model),[1]; 4 μM WT,4.1
same,enzyme concentration for 50% autoinhibition,[1]; 50 μM GTP,6.1 µM
same,apparent kcat at 2 μM EcCTPS,[1]; 50 μM GTP,2.9 s⁻¹
same,enzyme concentration for 50% autoinhibition,[1]; 200 μM GTP,3.9 µM
same,apparent kcat at 2 μM EcCTPS,[1]; 200 μM GTP,5.0 ± 0.1 s⁻¹
same,enzyme concentration for 50% autoinhibition,[1]; 500 μM GTP,2.8 µM
same,apparent kcat at 2 μM EcCTPS,[1]; 500 μM GTP,2.7 ± 1.0 s⁻¹
same,EC50,[1]; 4 μM WT EcCTPS,27 ± 7 µM
same,EC50,"[1]; standard: 200 nM EcCTPS, 1.5 mM ATP, 600 μM UTP, 10 mM glutamine",~38 µM and 38 µM
same,IC50,"[1]; IC50, 4 μM WT EcCTPS",455 ± 46 µM
same,IC50,[1]; [4],540 ± 60 µM
same,Ki,"[1]; 200 nM WT, no other inhibitor",301 µM
same,Ki,[1]; 4 μM WT,221 µM
same,optimal GTP concentration,[1]; in presence of 500 μM NADH,approximately 100 μM
same,concentration of maximum activation,[1]; standard conditions,~ 200 μM
same,EC50,E277R EcCTPS,46 ± 6 µM
same,IC50,E277R EcCTPS,697 ± 4 µM
same,Ki,E277R EcCTPS,342 µM
same,kact (two-site model),E277R EcCTPS; 200 nM E277R,10.7 s⁻¹
same,ninh (two-site model),E277R EcCTPS; 200 nM E277R,3.8
"NC(=O)c1ccc[n+]([C@@H]2O[C@H](COP(=O)([O-])OP(=O)(O)OC[C@H]3O[C@@H](n4cnc5c(N)ncnc54)[C@H](OP(=O)(O)O)[C@@H]3O)[C@@H](O)[C@H]2O)c1 [NADP^+, nicotinamide adenine dinucleotide 2’-phosphate (oxidized)]",IC50,[1]; [9],1280 ± 50 µM
NC(=O)CC[C@H](N)C(=O)O [glutamine],"Hill coeff, nH",[1]; [7],1.1 ± 0.1 (11)
same,S0.5,[1]; [7],360 ± 20^e μM
"CN1C=CCC(C(N)=O)=C1 [1MDHN, 1-methyl 1,4-dihydronicotinamide]",increase of inhibition potency,[1]; by 400 μM CTP,more than 2 fold
same,K2/K1 (sequential binding model),[1]; [5],4–40
same,K3/K2 (sequential binding model),[1]; [5],0.2–0.8
same,IC50^ox/IC50^red,[1],>28
same,IC50,[1]; [9],140 ± 10 µM
"NC(=O)c1ccc[n+]([C@@H]2O[C@H](COP(=O)([O-])OP(=O)(O)OC[C@H]3O[C@@H](n4cnc5c(N)ncnc54)[C@H](O)[C@@H]3O)[C@@H](O)[C@H]2O)c1 [NAD^+, nicotinamide adenine dinucleotide (oxidized)]",fold less effective inhibition than NADH,[1]; standard conditions,~ 3 fold
same,IC50,[1]; [9],1700 ± 70 µM
"Nc1ncnc2c1ncn2[C@@H]1O[C@H](COP(=O)(O)OP(=O)(O)O)[C@@H](O)[C@H]1O [ADP, adenosine 5’-diphosphate]",inhibition at 3000 µM,[1],35%
same,IC50,[1]; [4],~4500 µM
"NC(=O)C1=CN([C@@H]2O[C@H](COP(=O)(O)OP(=O)(O)OC[C@H]3O[C@@H](n4cnc5c(N)ncnc54)[C@H](OP(=O)(O)O)[C@@H]3O)[C@@H](O)[C@H]2O)C=CC1 [NADPH, 1,4 dihydronicotinamide adenine dinucleotide 2’-phosphate (reduced)]",IC50^ox/IC50^red,[1],2.8
same,IC50,[1]; [9],450 ± 20 µM
"NC(=O)C1=CN([C@@H]2O[C@H](COP(=O)(O)OP(=O)(O)OC[C@H]3O[C@@H](n4cnc5c(N)ncnc54)[C@H](O)[C@@H]3O)[C@@H](O)[C@H]2O)C=CC1 [NADH, 1,4 dihydronicotinamide adenine dinucleotide (reduced)]",effect on ammonia-dependent synthesis,EcCTPS,inhibits
same,IC50,"[1]; 50 μM GTP, otherwise standard",770 ± 30 µM
same,dependence of inhibition potency on enzyme concentration,[1]; Figure S4,independent of enzyme concentration from 50 to 400 nM
same,inhibition,"[1]; at 1250 μM, standard conditions",greater than 95%
same,increase of inhibition potency,[1]; by 400 μM CTP,~ 2.1 fold
same,K2/K1 (sequential binding model),[1]; [5],4–40
same,K3/K2 (sequential binding model),[1]; [5],0.2–0.8
same,IC50^ox/IC50^red,[1],3.7
same,IC50,[1]; [9],470 ± 40 µM
same,K2/K1 (sequential binding model),[1]; [6],0.4–0.8
same,K3/K2 (sequential binding model),[1]; [6],40–250
same,dose–response of E277R compared with wild-type,"E277R EcCTPS; 200 nM enzyme, 0–1500 μM NADH",no significant differences between wild-type and mutant
"O=c1ccn([C@@H]2O[C@H](COP(=O)(O)OP(=O)(O)OP(=O)(O)O)[C@@H](O)[C@H]2O)c(=O)[nH]1 [UTP, uridine-5’- triphosphate]","Hill coeff, nH",[1]; [7],1.3 ± 0.2
same,S0.5,[1]; [7],57 ± 8 µM
same,"Hill coeff, nH",[1]; 150 μM ATP (subsaturating),1.8 ± 0.1 (6)
same,S0.5,[1]; 150 μM ATP (subsaturating),200 ± 40 µM
same,"Hill coeff, nH",[1]; [8],1.4 ± 0.3 (23)^b
